Source: PubChem BioAssay (NCI)
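Cultured in 96-well plates, cells were exposed to test compound for 48 hours across five concentrations. GI50 marks 50% less growth. TGI marks complete inhibition of growth.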

Legend:
Assay in all cases: growth of human tumour cells (NCI), 48 h
[1] = system: SK-MEL-5 melanoma
[2] = system: OVCAR-4 ovarian
[3] = system: MDA-MB-435
[4] = system: SK-MEL-28 melanoma
[5] = system: SF-295 CNS
[6] = system: K-562 leukemia
[7] = system: SNB-19 CNS
[8] = system: OVCAR-3 ovarian
[9] = system: KM12 colon
[10] = system: T-47D breast
[11] = system: NCI-H460 lung
[12] = system: A549 NSCLC
[13] = system: HCT-116 colon
[14] = system: SW-620 colon
[15] = system: IGROV1 ovarian
[16] = system: PC-3 prostate
[17] = system: MCF7 breast
[18] = system: HS 578T breast
[19] = system: NCI/ADR-RES ovarian
[20] = system: SK-MEL-2 melanoma
[21] = system: UACC-257 melanoma
[22] = system: HCT-15 colon
[23] = system: COLO 205 colon
[24] = system: 786-0 renal
[25] = system: BT-549 breast
[26] = system: SR leukemia
[27] = system: HL-60(TB) leukemia
[28] = system: NCI-H522 lung
[29] = system: HT29 colon
[30] = system: RXF 393 renal
[31] = system: TK-10 renal
[32] = system: SF-539 CNS
[33] = system: SN12C renal
[34] = system: M14 melanoma
[35] = system: HOP-92 NSCLC
[36] = system: CCRF-CEM leukemia
[37] = system: HCC-2998 colon
[38] = system: SNB-75 CNS
[39] = system: SF-268 CNS
[40] = system: LOX IMVI melanoma
[41] = system: SK-OV-3 ovarian
[42] = system: UO-31 renal
[43] = system: UACC-62 melanoma
[44] = system: ACHN renal
[45] = system: MALME-3M melanoma
[46] = system: U251 CNS
[47] = system: CAKI-1 renal
[48] = system: NCI-H23 lung
[49] = system: MDA-MB-231 breast
[50] = system: MOLT-4 leukemia
[51] = system: A498 renal
[52] = system: OVCAR-8 ovarian
[53] = system: EKVX NSCLC
[54] = system: OVCAR-5 ovarian
[55] = system: DU-145 prostate

SMILES: COC(=O)c1cc2c3ccccc3n3c2c(n1)-c1[nH]c2ccccc2c(=O)c1C3
- GI50 [1]: > 100 µM
- TGI [1]: > 100 µM
- GI50 [2]: > 100 µM
- TGI [2]: > 100 µM
- GI50 [3]: > 100 µM
- TGI [3]: > 100 µM
- GI50 [4]: > 100 µM
- TGI [4]: > 100 µM
- GI50 [5]: 32 µM
- TGI [5]: > 100 µM
- GI50 [6]: > 100 µM
- TGI [6]: > 100 µM
- GI50 [7]: 26.3 µM
- TGI [7]: > 100 µM
- GI50 [8]: > 100 µM
- TGI [8]: > 100 µM
- GI50 [9]: > 100 µM
- TGI [9]: > 100 µM
- GI50 [10]: 58.4 µM
- TGI [10]: > 100 µM
- GI50 [11]: > 100 µM
- TGI [11]: > 100 µM
- GI50 [12]: > 100 µM
- TGI [12]: > 100 µM
- GI50 [13]: 21 µM
- TGI [13]: > 100 µM
- GI50 [14]: > 100 µM
- TGI [14]: > 100 µM
- GI50 [15]: 24.6 µM
- TGI [15]: > 100 µM
- GI50 [16]: > 100 µM
- TGI [16]: > 100 µM
- GI50 [17]: 15.6 µM
- TGI [17]: > 100 µM
- GI50 [18]: 15.4 µM
- TGI [18]: > 100 µM
- GI50 [19]: > 100 µM
- TGI [19]: > 100 µM
- GI50 [20]: 36.4 µM
- TGI [20]: > 100 µM
- GI50 [21]: > 100 µM
- TGI [21]: > 100 µM
- GI50 [22]: > 100 µM
- TGI [22]: > 100 µM
- GI50 [23]: > 100 µM
- TGI [23]: > 100 µM
- GI50 [24]: 16.8 µM
- TGI [24]: 60.3 µM
- GI50 [25]: 22.6 µM
- TGI [25]: 63.2 µM
- GI50 [26]: 17.3 µM
- TGI [26]: 96.9 µM
- GI50 [27]: > 100 µM
- TGI [27]: > 100 µM
- GI50 [28]: 66.3 µM
- TGI [28]: > 100 µM
- GI50 [29]: > 100 µM
- TGI [29]: > 100 µM
- GI50 [30]: 16.3 µM
- TGI [30]: 66.9 µM
- GI50 [31]: 23 µM
- TGI [31]: 45.9 µM
- GI50 [32]: 20.3 µM
- TGI [32]: 77.6 µM
- GI50 [33]: > 100 µM
- TGI [33]: > 100 µM
- GI50 [34]: > 100 µM
- TGI [34]: > 100 µM
- GI50 [35]: 11.4 µM
- TGI [35]: 29.3 µM
- GI50 [36]: 2.19 µM
- TGI [36]: > 100 µM
- GI50 [37]: > 100 µM
- TGI [37]: > 100 µM
- GI50 [38]: 16 µM
- TGI [38]: 71.3 µM
- GI50 [39]: 29.6 µM
- TGI [39]: > 100 µM
- GI50 [40]: > 100 µM
- TGI [40]: > 100 µM
- GI50 [41]: 19.6 µM
- TGI [41]: > 100 µM
- GI50 [42]: > 100 µM
- TGI [42]: > 100 µM
- GI50 [43]: 43.3 µM
- TGI [43]: > 100 µM
- GI50 [44]: 33.6 µM
- TGI [44]: > 100 µM
- GI50 [45]: > 100 µM
- TGI [45]: > 100 µM
- GI50 [46]: 15.2 µM
- TGI [46]: 52.3 µM
- GI50 [47]: > 100 µM
- TGI [47]: > 100 µM
- GI50 [48]: 38.9 µM
- TGI [48]: > 100 µM
- GI50 [49]: 33.7 µM
- TGI [49]: > 100 µM
- GI50 [50]: 5.9 µM
- TGI [50]: > 100 µM
- GI50 [51]: 27 µM
- TGI [51]: 73.7 µM
- GI50 [52]: > 100 µM
- TGI [52]: > 100 µM
- GI50 [53]: 79 µM
- TGI [53]: > 100 µM
- GI50 [54]: > 100 µM
- TGI [54]: > 100 µM
- GI50 [55]: > 100 µM
- TGI [55]: > 100 µM
